Measured values published in patent publication US12428430B2 (BRISTOL-MYERS SQUIBB COMPANY, priority 2018, dated 2025).

target: hLPA1 (Homo sapiens, UniProt Q92633); experiment: LPA1 functional antagonist assay (LPA-induced calcium flux in CHO cells overexpressing human LPA1); assay type: cell-based; set-up: expressed in transfected cells; host or cells: Chinese hamster ovary (CHO) cells; conditions: antagonist mode, inhibition of calcium flux induced by 10 nM LPA, read-out: hLPA1 IC50
Experimental: The effectiveness of compounds of the present invention as LPA1 inhibitors can be determined in an LPA1 functional antagonist assay as follows:
Chinese hamster ovary cells overexpressing human LPA1 were plated overnight (15,000 cells/well) in poly-D-lysine coated 384-well microplates (Greiner bio-one, Cat #781946) in DMEM/F12 medium (Gibco, Cat #11039). Following overnight culture, cells were loaded with calcium indicator dye (AAT Bioquest Inc, Cat #34601) for 30 minutes at 37° C. The cells were then equilibrated to room temperature for 30 minutes before the assay. Test compounds solubilized in DMSO were transferred to 384 well non-binding surface plates (Corning, Cat #3575) using the Labcyte Echo acoustic dispense and diluted with assay buffer [1×HBSS with calcium/magnesium (Gibco Cat #14025-092), 20 mM HEPES (Gibco Cat #15630-080) and 0.1% fatty acid free BSA (Sigma Cat #A9205)] to a final concentration of 0.5% DMSO. Diluted compounds were added to the cells by FDSS6000 (Hamamatsu) at final concentrations ranging from 0.08 nM to 5 μM. and were then incubated for 20 min at room temperature at which time LPA (Avanti Polar Lipids Cat #857130C) was added at final concentrations of 10 nM to stimulate the cells. The compound IC50 value was defined as the concentration of test compound which inhibited 50% of the calcium flux induced by LPA alone. IC50 values were determined by fitting data to a 4-parameter logistic equation (GraphPad Prism, San Diego Calif.).

Chain of hLPA1 (Q92633 whole entry): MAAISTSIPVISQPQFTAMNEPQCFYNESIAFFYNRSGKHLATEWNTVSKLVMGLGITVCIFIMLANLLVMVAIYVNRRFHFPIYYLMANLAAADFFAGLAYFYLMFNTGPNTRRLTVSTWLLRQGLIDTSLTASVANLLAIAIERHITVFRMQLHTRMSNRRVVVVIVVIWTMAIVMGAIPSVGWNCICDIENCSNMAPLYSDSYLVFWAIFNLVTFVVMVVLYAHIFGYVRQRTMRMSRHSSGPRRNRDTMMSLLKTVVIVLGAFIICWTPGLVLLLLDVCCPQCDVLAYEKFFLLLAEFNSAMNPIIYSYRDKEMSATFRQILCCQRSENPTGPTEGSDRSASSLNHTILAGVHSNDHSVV

IC50 [nM] | Compound
440 | CC(C1CCC1)N(C)C(=O)OCc1c(-c2ccc(C34CCC(CCC(=O)O)(CC3)OC4)cc2)nnn1C (racemic) [Example 5, (±)-3-(4-(4-(5-((((1-Cyclobutylethyl)(methyl)carbamoyl)oxy)methyl)-1-methyl-1H-1,2,3-triazol-4-yl)phenyl)-2-oxabicyclo[2.2.2]octan-1-yl)propanoic acid]
117 | Cc1noc(-c2ccc(C34CCC(CC(=O)O)(CC3)OC4)cc2)c1NC(=O)OC(C)c1ccc(Cl)cc1 (racemic) [Example 14]
379 | Cc1noc(-c2ccc(C34CCC(CC(=O)O)(CC3)OC4)cc2)c1NC(=O)OC(C)c1cccc(Cl)c1 (racemic) [Example 15, (±)-2-(4-(4-(4-(((1-(3-chlorophenyl)ethoxy)carbonyl)amino)-3-methyl-isoxazol-5-yl)phenyl)-2-oxabicyclo[2.2.2]octan-1-yl)acetic acid]
692 | Cc1noc(-c2ccc(C34CCC(CC(=O)O)(CC3)OC4)c(F)c2)c1NC(=O)OC(C)c1cccc(Cl)c1 (racemic) [Example 19, (±)-2-(4-(4-(4-(((1-(3-chlorophenyl)ethoxy)carbonyl)amino)-3-methyl-isoxazol-5-yl)-2-fluorophenyl)-2-oxabicyclo[2.2.2]octan-1-yl)acetic acid]
406 | Cc1noc(-c2ccc(C34CCC(CC(=O)O)(CC3)OC4)cc2F)c1NC(=O)OC(C)c1ccc(Cl)cc1 (racemic) [Example 24, (±)-2-(4-(4-(4-(((1-(4-chlorophenyl)ethoxy)carbonyl)amino)-3-methyl-isoxazol-5-yl)-3-fluorophenyl)-2-oxabicyclo[2.2.2]octan-1-yl)acetic acid]
345 | Cc1noc(-c2ccc(C34CCC(CC(=O)O)(CC3)OC4)cc2F)c1NC(=O)OC(C)c1cccc(Cl)c1 (racemic) [Example 25, (±)-2-(4-(4-(4-(((1-(3-chlorophenyl)ethoxy)carbonyl)amino)-3-methyl-isoxazol-5-yl)-3-fluorophenyl)-2-oxabicyclo[2.2.2]octan-1-yl)acetic acid]
92 | Cc1cc(C23CCC(CC(=O)O)(CC2)OC3)ccc1-c1onc(C)c1NC(=O)O[C@H](C)c1ccccc1C (racemic) [Example 26, (±)-2-(4-(3-methyl-4-(3-methyl-4-((((R)-1-(o-tolyl)ethoxy)carbonyl)amino)isoxazol-5-yl)phenyl)-2-oxabicyclo[2.2.2]octan-1-yl)acetic acid]
1140 | CC(OC(=O)Nc1c(-c2ccc(C34CCC(CC(=O)O)(CC3)OC4)c(F)c2)cnn1C)c1ccc(Cl)cc1 (racemic) [Example 29, (±)-2-(4-(4-(5-(((1-(4-chlorophenyl)ethoxy)carbonyl)amino)-1-methyl-1H-pyrazol-4-yl)-2-fluorophenyl)-2-oxabicyclo[2.2.2]octan-1-yl)acetic acid]
1890 | CC(C1CC1)N(C)C(=O)OCc1c(-c2ccc(C34CCC(CC(=O)O)(CC3)OC4)cc2)cnn1C (racemic) [Example 36, (rac)-2-(4-(4-(5-((((1-cyclopropyl-ethyl)(methyl)carbamoyl)oxy)methyl)-1-methyl-1-pyrazol-4-yl)phenyl)-2-oxabicyclo[2.2.2]octan-1-yl)acetic acid]
166 | CC(C1CCC1)N(C)C(=O)OCc1c(-c2ccc(C34CCC(CC(=O)O)(CC3)OC4)cc2)cnn1C (racemic) [Example 37, (rac)-2-(4-(4-(5-((((1-cyclobutyl-ethyl)(methyl)carbamoyl)oxy)methyl)-1-methyl-1H-pyrazol-4-yl)phenyl)-2-oxabicyclo[2.2.2]octan-1-yl)acetic acid]
116 | Cc1noc(-c2ccc(C34CCC(CC(=O)O)(CC3)OC4)cc2)c1NC(=O)O[C@H](C)c1ccccc1 [Example 1, 2-(4-(4-(3-methyl-4-((((R)-1-phenylethoxy)carbonyl)amino)isoxazol-5-yl)phenyl)-2-oxabicyclo [2.2.2]octan-1-yl)acetic acid]
88 | C[C@@H](OC(=O)Nc1c(-c2ccc(C34CCC(CC(=O)O)(CC3)OC4)cc2)cnn1C)c1ccccc1 [Example 2, 2-(4-(4-(1-methyl-5-((((R)-1-phenylethoxy)carbonyl)amino)-1H-pyrazol-4-yl)phenyl)-2-oxabicyclo[2.2.2]octan-1-yl)acetic acid]
317 | Cc1noc(-c2ccc(C34CCC(CC(=O)O)(CC3)OC4)cc2)c1COC(=O)N(C)C1CCCC1 [Example 3, 2-(4-(4-(4-(((cyclopentyl(methyl)carbamoyl)oxy)methyl)-3-methylisoxazol-5-yl)phenyl)-2-oxabicyclo[2.2.2]octan-1-yl)acetic acid]
1610 | CN(C(=O)OCc1c(-c2ccc(C34CCC(CC(=O)O)(CC3)OC4)cc2)cnn1C)C1CCCC1 [Example 4, 2-(4-(4-(5-(((cyclopentyl(methyl)carbamoyl)oxy)methyl)-1-methyl-1H-pyrazol-4-yl)phenyl)-2-oxabicyclo[2.2.2]octan-1-yl)acetic acid]
363 | CN(C(=O)OCc1c(-c2ccc(C34CCC(CC(=O)O)(CC3)OC4)c(F)c2)nnn1C)C1CCCC1 [Example 6, 2-(4-(4-(5-(((Cyclopentyl(methyl)carbamoyl)oxy)methyl)-1-methyl-1H-1,2,3-triazol-4-yl)-2-fluorophenyl)-2-oxabicyclo[2.2.2]octan-1-yl)acetic acid]
264 | C[C@@H](OC(=O)Nc1c(-c2ccc(C34CCC(CCC(=O)O)(CC3)OC4)cc2)nnn1C)c1ccccc1 [Example 7, 3-(4-(4-(1-methyl-5-((((R)-1-phenylethoxy)carbonyl)amino)-1H-1,2,3-triazol-4-yl)phenyl)-2-oxabicyclo[2.2.2]octan-1-yl)propanoic acid]
418 | C[C@@H](OC(=O)Nc1c(-c2ccc(C34CCC(CCC(=O)O)(CC3)OC4)cc2)nnn1C)c1ccccc1Cl [Example 8, 3-(4-(4-(5-((((R)-1-(2-chlorophenyl)ethoxy)carbonyl)amino)-1-methyl-1H-1,2,3-triazol-4-yl)phenyl)-2-oxabicyclo[2.2.2]octan-1-yl)propanoic acid]
278 | C[C@@H](OC(=O)Nc1c(-c2ccc(C34CCC(C(=O)O)(CC3)OC4)cc2)cnn1C)c1ccccc1 [Example 9, (R)-4-(4-(1-methyl-5-(((1-phenylethoxy)carbonyl)amino)-1H-pyrazol-4-yl)phenyl)-2-oxabicyclo[2.2.2]octane-1-carboxylic acid]
422 | C[C@@H](OC(=O)Nc1c(-c2ccc(C34CCC(CC(=O)O)(CC3)OC4)cc2)cnn1CC1CC1)c1ccccc1 [Example 10, (R)-2-(4-(4-(1-(cyclopropylmethyl)-5-(((1-phenylethoxy)carbonyl)amino)-1H-pyrazol-4-yl)phenyl)-2-oxabicyclo[2.2.2]octan-1-yl)acetic acid]

Compound | IC50 [nM]
2-(4-(4-(4 2-(4-(4-(4-((((cyclobutyl-methyl)carbamoyl)oxy)methyl)-3-methylisoxazol-5-yl)phenyl)-2-oxabicyclo[2.2.2]octan-1-yl)acetic acid [Example 35] | 655
2-(4-(4-(4-((((cyclobutylmethyl)(methyl)carbamoyl)oxy)methyl)-3-methylisoxazol-5-yl)phenyl)-2-oxabicyclo[2.2.2]octan-1-yl)acetic acid [Example 34] | 158
